Earlier results, collected in patent US11260023B2, “Topical compositions containing rofecoxib and methods of making and using the same” (BRIORI BIOTECH, LLC, priority 2020, dated 2022).

Tests used:
[1] = of the solvent; cited from earlier work
[2] = after 24 hours after 25 hours; cited from earlier work

Compound | logP [1] | Δd (dispersion) [1] [MPa^1/2] | Δh (hydrogen bonding) [1] [MPa^1/2] | Δp (polar) [1] [MPa^1/2] | amount of diclofenac that penetrates into the blood [2] [mg]
CC(C)=O [Acetone, acetone] | −0.1 | 15.5 | 7 | 10.4 | 
CC(=O)OCC(C)OC(C)=O (centres unmarked) [Propylene Glycol Diacetate, propylene glycol diacetate] | 0.7 |  |  |  | 
CC(O)CO (centres unmarked) [Propylene Glycol, MP, propylene glycol] | −0.9 | 16.8 | 23.3 | 9.4 | 
C[S+](C)[O-] [Dimethyl Sulfoxide, dimethyl sulfoxide] | −0.6 | 18.4 | 10.2 | 16.4 | 
CC1=CCC(C(C)(C)O)CC1 (stereo not drawn) [alpha-Terpineol 95.0+ %, alpha-terpineol] | 1.8 | 17.1 | 7.6 | 3.6 | 
CCOC(=O)CCCCCCCCC(=O)OCC [Diethyl Sebacate, diethyl sebacate] | 3.5 | 16 | 4.7 | 4 | 
OCc1ccccc1 [Benzyl Alcohol, benzyl alcohol] |  | 18.4 | 13.7 | 6.3 | 
CCCCCCCCCCCCCC(=O)OC(C)C [Isopropyl tetradecanoate, isopropyl tetradecanoate] |  | 16.2 | 3.7 | 2.4 | 
CO[C@H]1CO[C@H]2[C@@H]1OC[C@H]2OC [Dimethyl Isosorbide, isosorbide dimethyl ether] | −0.6 | 17.6 | 7.5 | 7.1 | 
CC1COC(=O)O1 (centres unmarked) [Propylene Carbonate, propylene carbonate] | −0.4 | 20 | 4.1 | 18 | 
CC(O)CC(C)(C)O (centres unmarked) [2-Methyl-pentane-2,4-diol, 2-methylpentane-2,4-diol] | 0.3 | 16.4 | 20.6 | 8 | 
CCOC(C)=O [Ethyl Acetate, ethyl acetate] | 0.76 | 15.8 | 7.2 | 5.3 | 
CCOCCOCCO [Diethylene Glycol Monoethyl Ether, diethylene glycol monoethyl ether] | −0.5 | 16.2 | 14.3 | 9.2 | 
CN1CCCC1=O [N-Methyl-2-Pyrrolidone, N-methyl-2-pyrrolidone] | 0.5 | 18 | 7.2 | 12.3 | 
CC(C)OC(=O)CCCCC(=O)OC(C)C [Diisopropyl Adipate, diisopropyl adipate] | 2.2 |  |  |  | 
O=C(O)Cc1ccccc1Nc1c(Cl)cccc1Cl [diclofenac] |  |  |  |  | 0.067
